Data on one compound can be found in paper PMC4113456, “Atypical Signaling and Functional Desensitization Response of MAS Receptor to Peptide Ligands” (PLoS ONE, 2014).

One series deals with T1, MAS T270A mutant (Homo sapiens, UniProt P04201, T270A).
T1 construct: expressed in transfected cells
T1 sequence (P04201 1-325 T270A): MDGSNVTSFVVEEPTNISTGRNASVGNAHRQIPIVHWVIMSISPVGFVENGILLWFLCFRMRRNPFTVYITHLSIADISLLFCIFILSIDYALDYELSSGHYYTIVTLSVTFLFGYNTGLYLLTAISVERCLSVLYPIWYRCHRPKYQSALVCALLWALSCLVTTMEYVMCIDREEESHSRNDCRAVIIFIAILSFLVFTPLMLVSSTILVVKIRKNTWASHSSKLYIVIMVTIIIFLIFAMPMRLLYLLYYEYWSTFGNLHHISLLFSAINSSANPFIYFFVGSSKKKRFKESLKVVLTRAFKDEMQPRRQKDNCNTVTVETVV
The series is described as follows: Calcium assay, T270A MAS mutant stable cell line. It counts as cell-based.

Series [1] has as its system MAS. Also noted: method as in ref [9] (a number printed in a supplementary file, which may have a reference list of its own: not looked up in the article's list). Particulars: Rat MAS; ref [9]; read-out: EC50 (cAMP assay); cited from earlier work.
The target of the next series is T2, MAS F112A mutant (Homo sapiens, UniProt P04201, F112A).
T2 construct: expressed in transfected cells
T2 sequence (P04201 1-325 F112A): T1 sequence (P04201 1-325 T270A) with F112A, A270T
The series is described as follows: Calcium assay, F112A MAS mutant stable cell line. The format is cell-based.

Series [2] in a line: Solubility of ligand stock in assay buffer. It counts as physicochemical. Particulars: 5x ligand stock in D-PBS, at greater than 50 µM.
In the next series the target is T3, MAS M244A mutant (Homo sapiens, UniProt P04201, M244A).
T3 construct: expressed in transfected cells
T3 sequence (P04201 1-325 M244A): T1 sequence (P04201 1-325 T270A) with M244A, A270T
The experiment in a line: Calcium assay, M244A MAS mutant stable cell line. The format is cell-based.

Series [3] addresses T4, MAS (Homo sapiens, UniProt P04201).
T4 construct: expressed in transfected cells
T4 sequence (P04201 1-325): T1 sequence (P04201 1-325 T270A) with A270T
Also noted: method as in ref [9] (a number printed in a supplementary file, which may have a reference list of its own: not looked up in the article's list). Particulars: ref [9], read-out: EC50 (IP1 assay); cited from earlier work.

The next series deals with T5, MAS I191A mutant (Homo sapiens, UniProt P04201, I191A).
T5 construct: expressed in transfected cells
T5 sequence (P04201 1-325 I191A): T1 sequence (P04201 1-325 T270A) with I191A, A270T
The series is described as follows: Calcium assay, I191A MAS mutant stable cell line. The format is cell-based.

Substitutions are numbered along the chain they refer to.

`COc1cc([N+](=O)[O-])ccc1S(=O)(=O)N1CC(CN2CCN(c3ccccn3)CC2)C(c2cccc(F)c2)C1` (centres unmarked) [AR-agonist]: the “EC50, Calcium assay” value on MAS T270A mutant, on MAS F112A mutant and on MAS M244A mutant was “cbd” in each case. Besides, the “t1/2, Calcium assay” value on MAS T270A mutant was 40.0 ± 1.2 s; at MAS F112A mutant, “cbd”; on MAS M244A mutant it was “cbd”; at MAS I191A mutant it was 68.3 ± 5.3 s. The EC50 with MAS [1] was 1710 nM; on MAS [3], 350 nM; at MAS I191A mutant, 17600 ± 3800 nM. Besides, the Solubility result in series [2] is “solubility issues”.
